Where a SMILES comes first, the peptide text is derived from it. The star is where a group is joined. pNA = O=[N+]([O-])c1ccc(N*)cc1
B1: dipeptidyl aminopeptidase I (Aspergillus oryzae RIB40) (protein)
chain: LDVPRKPHAPTGEGSKRLTFNETVVKQAITPTSRSVQWLSGAEDGSYVYAAEDGSLTIENIVTNESRTLIPADKIPTGKEAFNYWIHPDLSSVLWASNHTKQYRHSFFADYYVQDVESLKSVPLMPDQEGDIQYAQWSPVGNTIAFVRENDLYVWDNGTVTRITDDGGPDMFHGVPDWIYEEEILGDRYALWFSPDGEYLAYLSFNETGVPTYTVQYYMDNQEIAPAYPWELKIRYPKVSQTNPTVTLSLLNIASKEVKQAPIDAFESTDLIIGEVAWLTDTHTTVAAKAFNRVQDQQKVVAVDTASNKATVISDRDGTDGWLDNLLSMKYIGPIKPSDKDAYYIDISDHSGWAHLYLFPVSGGEPIPLTKGDWEVTSILSIDQERQLVYYLSTQHHSTERHLYSVSYSTFAVTPLVDDTVAAYWSASFSANSGYYILTYGGPDVPYQELYTTNSTKPLRTITDNAKVLEQIKDYALPNITYFELPLPSGETLNVMQRLPPGFSPDKKYPILFTPYGGPGAQEVTKRWQALNFKAYVASDSELEYVTWTVDNRGTGFKGRKFRSAVTRQLGLLEAEDQIYAAQQAANIPWIDADHIGIWGWSFGGYLTSKVLEKDSGAFTLGVITAPVSDWRFYDSMYTERYMKTLSTNEEGYETSAVRKTDGFKNVEGGFLIQHGTGDDNVHFQNSAALVDLLMGDGVSPEKLHSQWFTDSDHGISYHGGGVFLYKQLARKLYQEKNRQTQVLMHQWTKKDLEE

Experiments:
Format in all cases: biochemical
[1] = target: dipeptidyl aminopeptidase I (Aspergillus oryzae, UniProt Q2UH35); assay: relative activity on mono-, di- and tri-peptide para-nitroanilide substrates; conditions: enzyme diluted 100-fold, pH 7.5, ambient temperature; for Activity (mOD/min): substrate 2 mg/ml stock
Method: The relative activity of various mono-, di-, and tri-peptide para-nitroanilide substrates were assayed relative to Ala-Pro-pNA with the purified dipeptidyl aminopeptidase I diluted 100-fold in 50 mM sodium phosphate pH 7.5 buffer. Each substrate was dissolved in DMSO to a concentration of 100 mg/ml and then diluted 50 fold in 50 mM sodium phosphate pH 7.5 buffer to 2 mg/ml. The assay was performed by mixing 100 μl of the substrate solution with 100 μl of the dipeptidyl aminopeptidase I solution and monitoring the change in absorbance at 405 nm and ambient temperature.

[2] = substrate: C[C@H](N)C(=O)N1CCC[C@H]1C(=O)Nc1ccc([N+](=O)[O-])cc1; assay: kinetic parameters (Lineweaver-Burke plot) for dipeptidyl aminopeptidase I substrates; conditions: other: 50 mM sodium phosphate pH 7.5
Method: (§1) The kinetic parameters for various dipeptidyl aminopeptidase I substrates was determined using the following protocol. The substrates included Ala-Pro-pNA, Asp-Pro-pNA, and Ala-Ala-pNA. Purified dipeptidyl aminopeptidase I with an A280 of 1.521 was diluted 25-fold for Ala-Pro-pNA, 20-fold for Asp-Pro-pNA, and 10-fold for Ala-Ala-pNA in water. Each substrate was dissolved in DMSO to a concentration of 100 mg/ml and then diluted 50 fold in 50 mM sodium phosphate pH 7.5 buffer to 2 mg/ml. In a 96 well microtiter plate, 10 μl of purified dipeptidyl aminopeptidase I was incubated with each substrate as follows except the 200 μl substrate assay was not performed with the Asp-Pro-pNA substrate, and the absorbance at 405 nm was measured for 3 minutes: • 1. 200 μl of 2 mg/ml substrate+0 μl of 50 mM sodium phosphate buffer pH 7.5 • 2. 100 μl of 2 mg/ml substrate+100 μl of 50 mM sodium phosphate buffer pH 7.5 • 3. 50 μl of 2 mg/ml substrate +150 μl of 50 mM sodium phosphate buffer pH 7.5 • 4. 25 μl of 2 mg/ml substrate+175 μl of 50 mM sodium phosphate buffer pH 7.5 • 5. 10 μl of 2 mg/ml substrate+190 μl of 50 mM sodium phosphate buffer pH 7.5 • 6. 5 μl of 2 mg/ml substrate+195 μl of 50 mM sodium phosphate buffer pH 7.5

[3] = substrate: C[C@H](N)C(=O)N[C@@H](C)C(=O)Nc1ccc([N+](=O)[O-])cc1; assay: as above; conditions: other: 50 mM sodium phosphate pH 7.5
Method: as §1

[4] = substrate: N[C@@H](CC(=O)O)C(=O)N1CCC[C@H]1C(=O)Nc1ccc([N+](=O)[O-])cc1; assay: as above; conditions: other: 50 mM sodium phosphate pH 7.5
Method: as §1

Molecule	Percent Activity Retative to Ala-Pro-pNA [1]	Activity (mOD/min) [1]	other results
NCC(=O)N[C@@H](CCCN=C(N)N)C(=O)Nc1ccc([N+](=O)[O-])cc1 [Gly-Arg-pNA] (H-Gly-Arg-pNA)	0%	0 mOD/min	–
NCC(=O)N1CCCC1C(=O)Nc1ccc([N+](=O)[O-])cc1 (stereo not drawn) [Gly-Pro-pNA]	51.25%	125 mOD/min	–
N=C(N)NCCC[C@H](N)C(=O)N1CCC[C@H]1C(=O)Nc1ccc([N+](=O)[O-])cc1 [Arg-Pro-pNA] (H-Arg-Pro-pNA)	42.17%	103 mOD/min	–
NCC(=O)N[C@@H](CCC(=O)O)C(=O)Nc1ccc([N+](=O)[O-])cc1 [Gly-Glu-pNA] (H-Gly-Glu-pNA)	0%	<2 mOD/min	–
CC(C)[C@H](N)C(=O)N[C@@H](C)C(=O)Nc1ccc([N+](=O)[O-])cc1 [Val-Ala-pNA] (H-Val-Ala-pNA)	20.3%	49.5 mOD/min	–
CC(C)C[C@H](N)C(=O)Nc1ccc([N+](=O)[O-])cc1 [Leu-pNA]	0%	0 mOD/min	–
C[C@H](N)C(=O)N[C@@H](C)C(=O)Nc1ccc([N+](=O)[O-])cc1 [Ala-Ala-pNA] (H-Ala-Ala-pNA)	12.4%	30.2 mOD/min	–
C[C@H](N)C(=O)Nc1ccc([N+](=O)[O-])cc1 [Ala-pNA]	0%	0 mOD/min	–
C[C@H](N)C(=O)N[C@@H](C)C(=O)N1CCC[C@H]1C(=O)Nc1ccc([N+](=O)[O-])cc1 [Ala-Ala-Pro-pNA] (H-Ala-Ala-Pro-pNA)	4.3%	10.6 mOD/min	–
N[C@@H](CC(=O)O)C(=O)N1CCC[C@H]1C(=O)Nc1ccc([N+](=O)[O-])cc1 [Asp-Pro-pNA] (H-Asp-Pro-pNA)	29%	70.95 mOD/min	–
C[C@H](N)C(=O)N1CCC[C@H]1C(=O)Nc1ccc([N+](=O)[O-])cc1 [Ala-Pro-pNA] (H-Ala-Pro-pNA)	100%	244 mOD/min	–
B1	–	–	Km [2]: 0.140 mM; kcat [2]: 576.3 min⁻¹; Km [3]: 1.08 mM; kcat [3]: 106.5 min⁻¹; Km [4]: 0.632 mM; kcat [4]: 244.3 min⁻¹

— patent US7098001B2, “Polypeptides having dipeptidyl aminopeptidase activity and nucleic acids encoding same” (Novozymes, Inc., priority 1997, dated 2006)
